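Cultured in 96-well plates, cells were exposed to test compound for 48 hours across five concentrations. GI50 is the concentration that inhibits growth by half.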 Calls of active or inactive are those of the source. Cut-off read from the data, not from the text of the source: active = GI50 up to about 1.1 µM and inactive = higher.
Tests used:
Experiment in all cases: NCI-60 cell line screen, 48 h
ACHN = tested on: ACHN
CCRF-CEM = tested on: CCRF-CEM
HCC 2998 = tested on: HCC 2998
HOP-62 = tested on: HOP-62
HT-29 = tested on: HT-29
KM12 = tested on: KM12
LXFL 529 = tested on: LXFL 529
NCI-H522 = tested on: NCI-H522
OVCAR-8 = tested on: OVCAR-8
RXF 393 = tested on: RXF 393
SF-268 = tested on: SF-268
SF-295 = tested on: SF-295
SK-MEL-28 = tested on: SK-MEL-28
SK-MEL-2 = tested on: SK-MEL-2
UACC-257 = tested on: UACC-257

Measured: GI50

COc1ccc(NC(=O)CC/C(CC(=O)c2ccco2)=N/Nc2ccc([N+](=O)[O-])cc2[N+](=O)[O-])cc1
inactive: ACHN > 100 µM | CCRF-CEM 23.7 µM | HCC 2998 > 100 µM | HOP-62 > 100 µM | HT-29 48 µM | KM12 > 100 µM | LXFL 529 43.2 µM | NCI-H522 55 µM | OVCAR-8 > 100 µM | RXF 393 75.9 µM | SF-268 64 µM | SF-295 62.1 µM | SK-MEL-28 > 100 µM | SK-MEL-2 72.1 µM | UACC-257 49.8 µM

CC1(C)CCC(Sc2ccccc2)O1 (configuration not stated)
inactive: ACHN > 100 µM | CCRF-CEM > 100 µM | HCC 2998 > 100 µM | HOP-62 > 100 µM | KM12 > 100 µM | LXFL 529 > 100 µM | OVCAR-8 > 100 µM | RXF 393 > 100 µM | SF-268 > 100 µM | SF-295 > 100 µM | SK-MEL-28 > 100 µM | SK-MEL-2 > 100 µM | UACC-257 > 100 µM

Cc1cc(C)nc(NS(=O)(=O)c2ccc(Nc3c4ccc(Cl)cc4nc4c(C(=O)Nc5ccc(S(N)(=O)=O)cc5)cccc34)cc2)n1
inactive: ACHN 32.1 µM | CCRF-CEM 25.1 µM | HCC 2998 16.6 µM | HOP-62 14.1 µM | HT-29 24 µM | KM12 14.2 µM | LXFL 529 23.8 µM | NCI-H522 10.9 µM | OVCAR-8 16.9 µM | RXF 393 13.3 µM | SF-268 39.2 µM | SF-295 18.2 µM | SK-MEL-28 33.8 µM | UACC-257 18.8 µM

CCN(CC)CC(C(C)=O)C(c1ccccc1)c1c(O)c2ccccc2oc1=O (configuration not stated)
inactive: ACHN > 100 µM | CCRF-CEM > 100 µM | HCC 2998 > 100 µM | HOP-62 > 100 µM | HT-29 > 100 µM | KM12 > 100 µM | LXFL 529 > 100 µM | NCI-H522 > 100 µM | OVCAR-8 > 100 µM | RXF 393 > 100 µM | SF-268 > 100 µM | SF-295 > 100 µM | SK-MEL-28 > 100 µM | SK-MEL-2 > 100 µM | UACC-257 63.1 µM

O=C(CCc1nnc2s/c(=C\c3ccccc3)c(=O)n12)Nc1cc(Cl)ccc1Cl
inactive: ACHN > 100 µM | CCRF-CEM > 100 µM | HCC 2998 > 100 µM | HOP-62 > 100 µM | HT-29 > 100 µM | KM12 > 100 µM | LXFL 529 > 100 µM | NCI-H522 > 100 µM | OVCAR-8 > 100 µM | RXF 393 > 100 µM | SF-268 > 100 µM | SF-295 > 100 µM | SK-MEL-28 > 100 µM | SK-MEL-2 > 100 µM | UACC-257 > 100 µM

O=C1OC(/C=C/c2ccccc2)C(=O)C1=O (configuration not stated)
inactive: ACHN > 100 µM | CCRF-CEM > 100 µM | HCC 2998 > 100 µM | HOP-62 > 100 µM | HT-29 > 100 µM | KM12 > 100 µM | LXFL 529 > 100 µM | NCI-H522 > 100 µM | RXF 393 > 100 µM | SF-268 > 100 µM | SF-295 > 100 µM | SK-MEL-28 > 100 µM | SK-MEL-2 > 100 µM | UACC-257 > 100 µM

CN(C)c1ccc(/C=c2\sc3nc4ccccc4n3c2=O)cc1
inactive: ACHN > 100 µM | HCC 2998 > 100 µM | HOP-62 > 100 µM | HT-29 > 100 µM | KM12 > 100 µM | LXFL 529 > 100 µM | NCI-H522 > 100 µM | OVCAR-8 > 100 µM | RXF 393 77.6 µM | SF-268 > 100 µM | SF-295 > 100 µM | SK-MEL-28 > 100 µM | SK-MEL-2 > 100 µM | UACC-257 > 100 µM

c1ccc(/N=C2\c3ccccc3C3=NCCCN32)cc1
inactive: ACHN 29.4 µM | CCRF-CEM 61.1 µM | HCC 2998 49.7 µM | HOP-62 67.6 µM | HT-29 31.1 µM | KM12 38.7 µM | LXFL 529 43.3 µM | NCI-H522 18.1 µM | OVCAR-8 > 100 µM | RXF 393 34.7 µM | SF-268 81.5 µM | SF-295 92 µM | SK-MEL-28 > 100 µM | SK-MEL-2 86.5 µM | UACC-257 40.4 µM

C=CCN(N=O)C(=O)ON1C(=O)CCC1=O
inactive: ACHN > 100 µM | CCRF-CEM 85.9 µM | HCC 2998 > 100 µM | HOP-62 > 100 µM | HT-29 > 100 µM | KM12 > 100 µM | LXFL 529 > 100 µM | NCI-H522 64.7 µM | OVCAR-8 > 100 µM | RXF 393 > 100 µM | SF-268 > 100 µM | SF-295 > 100 µM | SK-MEL-28 > 100 µM | SK-MEL-2 > 100 µM | UACC-257 > 100 µM

CCC(C)c1cccc(C)c1NC(=O)C(=O)Cc1nc2ccccc2s1 (configuration not stated)
inactive: ACHN > 100 µM | CCRF-CEM > 100 µM | HCC 2998 > 100 µM | HOP-62 > 100 µM | HT-29 > 100 µM | KM12 > 100 µM | LXFL 529 > 100 µM | NCI-H522 > 100 µM | OVCAR-8 > 100 µM | RXF 393 > 100 µM | SF-268 > 100 µM | SF-295 > 100 µM | SK-MEL-28 > 100 µM | SK-MEL-2 > 100 µM | UACC-257 > 100 µM

C/C=C1/C=CC2c3[nH]c4ccccc4c3CCN2C1 (configuration not stated)
inactive: ACHN > 400 µM | CCRF-CEM > 400 µM | HCC 2998 > 400 µM | HOP-62 > 400 µM | HT-29 > 400 µM | KM12 > 400 µM | LXFL 529 > 400 µM | NCI-H522 195 µM | OVCAR-8 > 400 µM | RXF 393 > 400 µM | SF-268 > 400 µM | SF-295 315 µM | SK-MEL-28 > 400 µM | SK-MEL-2 > 400 µM | UACC-257 243 µM

CCSC1(SCC)CC(Cc2ccc(OC)cc2)N(/C=N/C(C)(C)C)C1 (configuration not stated)
inactive: ACHN 32.5 µM | CCRF-CEM 15.2 µM | HCC 2998 17 µM | HOP-62 56.9 µM | HT-29 10.7 µM | KM12 25.9 µM | LXFL 529 25.3 µM | NCI-H522 15 µM | OVCAR-8 28.2 µM | RXF 393 11.5 µM | SF-268 61 µM | SF-295 15.1 µM | SK-MEL-28 35.8 µM | SK-MEL-2 33.1 µM | UACC-257 20.2 µM

Cc1cc(Cl)cc2c1NC(=O)C2=O.O=C(c1ccccc1)C(F)(F)F
inactive: ACHN 75.7 µM | CCRF-CEM 17.2 µM | HCC 2998 > 100 µM | HOP-62 > 100 µM | HT-29 78 µM | KM12 61 µM | LXFL 529 56.1 µM | NCI-H522 24.7 µM | OVCAR-8 55.5 µM | RXF 393 73.3 µM | SF-268 > 100 µM | SF-295 56.2 µM | SK-MEL-28 93.1 µM | SK-MEL-2 36 µM | UACC-257 27.5 µM

CC(C)=CCC/C(C)=C/CC/C(C)=C/CC/C=C(\C)CC/C=C(\C)CCC1SC1(C)C (configuration not stated)
inactive: ACHN > 100 µM | CCRF-CEM > 100 µM | HCC 2998 > 100 µM | HOP-62 > 100 µM | HT-29 > 100 µM | KM12 > 100 µM | LXFL 529 > 100 µM | NCI-H522 > 100 µM | OVCAR-8 > 100 µM | RXF 393 > 100 µM | SF-268 > 100 µM | SF-295 > 100 µM | SK-MEL-28 > 100 µM | SK-MEL-2 > 100 µM | UACC-257 > 100 µM

N#CC12CC3(CCC1CCC1(C2)OCCO1)OCCO3 (configuration not stated)
inactive: ACHN > 100 µM | CCRF-CEM > 100 µM | HCC 2998 > 100 µM | HOP-62 > 100 µM | KM12 > 100 µM | LXFL 529 > 100 µM | NCI-H522 > 100 µM | OVCAR-8 > 100 µM | RXF 393 > 100 µM | SF-268 > 100 µM | SF-295 > 100 µM | SK-MEL-28 > 100 µM | SK-MEL-2 > 100 µM | UACC-257 > 100 µM

COC(=O)[C@@H]1C(=O)O[C@@H](c2ccc3c(c2)OCO3)[C@@H]1C(=O)OC.COC(=O)[C@H]1C(=O)O[C@@H](c2ccc3c(c2)OCO3)[C@@H]1C(=O)OC
inactive: ACHN > 100 µM | CCRF-CEM > 100 µM | HCC 2998 > 100 µM | HOP-62 > 100 µM | HT-29 > 100 µM | KM12 > 100 µM | LXFL 529 > 100 µM | NCI-H522 > 100 µM | OVCAR-8 > 100 µM | RXF 393 > 100 µM | SF-268 > 100 µM | SF-295 > 100 µM | SK-MEL-28 > 100 µM | UACC-257 > 100 µM

Nc1ccccc1N
inactive: ACHN > 100 µM | CCRF-CEM 21.1 µM | HCC 2998 > 100 µM | HOP-62 > 100 µM | HT-29 > 100 µM | KM12 > 100 µM | LXFL 529 > 100 µM | NCI-H522 15.5 µM | OVCAR-8 > 100 µM | RXF 393 > 100 µM | SF-268 > 100 µM | SF-295 > 100 µM | SK-MEL-28 > 100 µM | SK-MEL-2 > 100 µM

COc1cc(CC(=O)c2ccc3c(c2)OCO3)cc(OC)c1OC
inactive: ACHN > 100 µM | CCRF-CEM > 100 µM | HCC 2998 > 100 µM | HOP-62 > 100 µM | HT-29 > 100 µM | KM12 68.4 µM | LXFL 529 > 100 µM | NCI-H522 > 100 µM | OVCAR-8 > 100 µM | RXF 393 62.5 µM | SF-268 > 100 µM | SF-295 > 100 µM | SK-MEL-28 > 100 µM | SK-MEL-2 > 100 µM | UACC-257 > 100 µM
